Measurements from BindingDB's records for PubMed 39149111 (Cairo University).

Biological target: Prostaglandin G/H synthase 2 (Ovis aries) (UniProt P79208)
Test: Inhibition of ovine COX-2 using arachidonic acid as substrate preincubated for 5 mins followed by substrate addition

Chain of Prostaglandin G/H synthase 2 (Ovis aries) (P79208 whole entry, looked up): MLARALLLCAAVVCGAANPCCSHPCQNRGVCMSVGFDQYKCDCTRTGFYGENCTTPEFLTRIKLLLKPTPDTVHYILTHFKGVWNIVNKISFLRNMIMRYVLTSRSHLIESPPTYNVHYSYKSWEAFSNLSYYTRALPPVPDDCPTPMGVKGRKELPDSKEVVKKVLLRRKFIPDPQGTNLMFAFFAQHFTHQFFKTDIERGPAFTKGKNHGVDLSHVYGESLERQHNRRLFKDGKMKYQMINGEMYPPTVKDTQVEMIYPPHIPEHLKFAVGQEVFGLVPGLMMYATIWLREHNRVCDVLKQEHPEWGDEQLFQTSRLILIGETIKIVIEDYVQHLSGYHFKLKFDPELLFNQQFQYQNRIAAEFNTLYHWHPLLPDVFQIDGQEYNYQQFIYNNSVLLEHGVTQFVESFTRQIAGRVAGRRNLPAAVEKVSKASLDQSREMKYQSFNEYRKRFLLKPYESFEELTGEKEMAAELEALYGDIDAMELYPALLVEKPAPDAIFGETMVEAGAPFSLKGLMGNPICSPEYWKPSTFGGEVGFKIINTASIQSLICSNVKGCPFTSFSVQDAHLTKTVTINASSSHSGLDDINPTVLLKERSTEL

SMILES: O=C1NNC(N=CCc2ccc([N+](=O)[O-])cc2)C1=NNc1ccc(-c2nc3ccccc3o2)cc1 (stereo unspecified)
- IC50: 560 nM
